From patent US20120077744A1, “STEROID-SPARING METHODS OF TREATING BRAIN EDEMA” (Neutron Limited, priority 2007, published 2012)

Columns and labels:
[1] = test system: patients with primary or secondary brain tumors (peritumoral brain edema); assay: Open-label extension study: dexamethasone dose reduction (net cumulative change in dexamethasone dose, NCD); type: in vivo, human
From the text: Eligible patients with primary or secondary brain tumors, who had previously participated in one of two randomized, double-blind Phase III trials, were then enrolled in an open-label extension study. […] One of the goals of the open label study was to study the maximum dexamethasone reduction in each patient.

[2] = test system: patients with primary or secondary brain tumors (peritumoral brain edema); assay: Open-label extension study: adverse events and safety
Protocol: Eligible patients with primary or secondary brain tumors, who had previously participated in one of two randomized, double-blind Phase III trials, were then enrolled in an open-label extension study. As shown in FIG. 1 patients that participated in the Phase III studies that received XERECEPT (corticorelin acetate) 1 mg twice daily and dexamethasone or placebo and dexamethasone or dexamethasone alone were enrolled in the open label extension study. One of the goals of the open label study was to study the maximum dexamethasone reduction in each patient.
In the open-labeled extension study, patients returned at 4-week intervals and completed assessments that included adverse events, dexamethasone dose, and steroid side-effects. […] Net cumulative change in dexamethasone dose (NCD) for each patient was determined by the change in dexamethasone dose from baseline for each visit. The net sum of these changes accounted for duration, direction, and amount of dexamethasone dose change.

[3] = Open-label extension study: serial serum cortisol levels; type: in vivo, human; conditions: for AM serum cortisol, one patient: reference range 5-25 μg/dL
Protocol: Serial serum cortisol levels were obtained for 16 patients, and were normal or low in 15 (94%) of the 16 patients. In one patient, AM serum cortisol (reference range 5-25 μg/dL) was low on a dexamethasone dose of 2.5 mg/d, moderately elevated (39 μg/dL) after discontinuation of dexamethasone for 4 weeks, then normalized (25 μg/dL) after 16 weeks off dexamethasone, and again low (0.4 μg/dL) after 8 weeks on dexamethasone at 7.0-8.0 mg/d.

[4] = test system: patients with primary or secondary brain tumors (peritumoral brain edema); assay: Open-label extension study: improvement of steroid-related conditions; type: in vivo, human
Protocol: In these 8 patients, the mean NCD was −9.8 mg/d; the median NCD was −6.5 mg/d (0 to −36 mg/d).
Mean baseline dexamethasone dose was similar in patients with reduced NCD (6.2 mg) and those with increased NCD (6.3 mg). Improvement or resolution of baseline steroid-related conditions correlated with NCD. Such improvement was observed only in patients whose NCD was reduced or those who took no dexamethasone from baseline to date extraction, as shown in FIG. 3. FIG. 3 is flow chart depicting the net cumulative change in dexamethasone dose and steroid-related adverse events. In contrast, worsening or new onset of steroid-related AEs was confined to patients whose NCD was increased, with one exception—a patient who initiated dexamethasone ≦2 weeks prior to baseline. Improvement was most frequently observed in Cushingoid appearance (5 AEs) myopathy (4 AEs), and insomnia (2 AEs) followed by weight gain, bloating, pedal edema, polyuria, skin striae, and Herpes zoster rash (1 AE each). Median time to initial improvement of steroid-related conditions was 12 weeks (1 to 36 weeks).

[5] = test system: patients with primary or secondary brain tumors (peritumoral brain edema); conditions: interim report (SNO 2006); 20 subjects on corticorelin acetate for at least 4 weeks; cited from earlier work
[6] = test system: patients with primary or secondary brain tumors (peritumoral brain edema); conditions: interim report (SNO 2006); 8 of 18 subjects with such conditions at baseline; cited from earlier work
[7] = test system: RG2 glioma tumor cells; conditions: rats, cited from earlier work
[8] = test system: intracerebral W256 mammary carcinomas; conditions: rats, even at the study's lowest dose of corticorelin acetate; cited from earlier work
[9] = test system: vascular leakage of plasma constituents; conditions: systemic administration; response to injury or inflammatory mediators; cited from earlier work
[10] = test system: patients with peritumoral brain edema; conditions: cited from earlier work

SMILES: CC[C@H](C)[C@H](NC(=O)[C@@H](NC(=O)[C@H](CCC(=O)O)NC(=O)[C@H](CCSC)NC(=O)[C@H](CC(C)C)NC(=O)[C@H](CCCCN)NC(=O)[C@H](CCCNC(=N)N)NC(=O)[C@H](CC(N)=O)NC(=O)[C@H](CO)NC(=O)[C@H](Cc1c[nH]cn1)NC(=O)[C@H](C)NC(=O)[C@H](CCC(N)=O)NC(=O)[C@H](CCC(N)=O)NC(=O)[C@H](C)NC(=O)[C@H](CC(C)C)NC(=O)[C@H](CCC(N)=O)NC(=O)[C@H](CCC(=O)O)NC(=O)[C@H](C)NC(=O)[C@H](CCCNC(=N)N)NC(=O)[C@H](C)NC(=O)[C@H](CCSC)NC(=O)[C@H](CCC(=O)O)NC(=O)[C@H](CC(C)C)NC(=O)[C@@H](NC(=O)[C@H](CCC(=O)O)NC(=O)[C@H](CCCNC(=N)N)NC(=O)[C@H](CC(C)C)NC(=O)[C@H](CC(C)C)NC(=O)[C@H](Cc1c[nH]cn1)NC(=O)[C@H](Cc1ccccc1)NC(=O)[C@@H](NC(=O)[C@H](CC(C)C)NC(=O)[C@H](CC(=O)O)NC(=O)[C@H](CC(C)C)NC(=O)[C@H](CO)NC(=O)[C@@H](NC(=O)[C@@H]1CCCN1C(=O)[C@@H]1CCCN1C(=O)[C@H](CCC(=O)O)NC(=O)[C@H](CCC(=O)O)NC(=O)[C@@H](N)CO)[C@@H](C)CC)[C@@H](C)O)C(C)C)[C@@H](C)CC)C(N)=O [corticorelin acetate]
- Typically refractory patients who successfully reduced dexamethasone ([1]; 5 of the 8 patients 55 years of age): 62.5%
- Typically refractory patients who successfully reduced dexamethasone ([1]; 7 of the 10 patients with recurrent brain tumor): 70%
- Patients with increased NCD ([1]; 7 of the 20 patients): 35%
- Mean NCD ([1]; 7 patients whose NCD was increased): +10.7 mg/d
- Median NCD ([1]; 7 patients whose NCD was increased, range +2.0 mg/d to +46.0 mg/d): +5.0 mg/d
- Median maximum percent change from baseline in dexamethasone dose ([1]; 7 patients with increased NCD, range +50 to +200%): +100%
- Typically refractory patients who successfully reduced dexamethasone ([1]; 11 of the 16 patients in whom prior dexamethasone reductions had been unsuccessful): 69%
- Patients with reduced NCD ([1]; 11 of the 20 patients): 55%
- Mean NCD ([1]; 11 patients whose NCD was reduced): -10.7 mg/day
- Median NCD ([1]; 11 patients whose NCD was reduced, range −0.5 to −36 mg/d): -3.0 mg/day
- Median maximum percent change from baseline in dexamethasone dose ([1]; 11 patients with reduced NCD, range −11 to −100%): −87%
- Patients discontinuing dexamethasone altogether ([1]; of the 11 patients with reduced NCD): 5 patients
- Exposure to dexamethasone and steroid-related side-effects ([1]; patients with peritumoral brain edema): associated with reduced exposure to dexamethasone and improvement in steroid-related side-effects
- Patients who took 0.0 mg/d dexamethasone from baseline to ≧24 weeks ([1]; two of 20 patients): 10%
- Deaths: relation to study drug ([2]; four patients died between 1-40 days after the last dose): all because of conditions not related to study drug
- All adverse events, Mild ([2]; in vivo): 3 (15.0) n (%)
- All adverse events, Moderate ([2]; in vivo): 3 (15.0) n (%)
- All adverse events, Severe ([2]; in vivo): 1 (5.0) n (%)
- All adverse events, all severities (last column, no head) ([2]; in vivo): 7 (35.0) n (%)
- Eyelid edema, Mild ([2]; in vivo): 1 (5.0) n (%)
- Eyelid edema, all severities (last column, no head) ([2]; in vivo): 1 (5.0) n (%)
- Flushing, Mild ([2]; in vivo): 3 (15.0) n (%)
- Flushing, Moderate ([2]; in vivo): 2 (10.0) n (%)
- Flushing, all severities (last column, no head) ([2]; in vivo): 5 (25.0) n (%)
- Headache, Severe ([2]; in vivo): 1 (5.0) n (%)
- Headache, all severities (last column, no head) ([2]; in vivo): 1 (5.0) n (%)
- Injection site erythema, Mild ([2]; in vivo): 4 (20.0) n (%)
- Injection site erythema, Moderate ([2]; in vivo): 1 (5.0) n (%)
- Injection site erythema, all severities (last column, no head) ([2]; in vivo): 5 (25.0) n (%)
- Injection site reaction, Mild ([2]; in vivo): 2 (10.0) n (%)
- Injection site reaction, Moderate ([2]; in vivo): 1 (5.0) n (%)
- Injection site reaction, all severities (last column, no head) ([2]; in vivo): 3 (15.0) n (%)
- Nausea, Moderate ([2]; in vivo): 1 (5.0) n (%)
- Nausea, all severities (last column, no head) ([2]; in vivo): 1 (5.0) n (%)
- Number of SAEs ([2]; in vivo): 12 SAEs
- Photophobia, Moderate ([2]; in vivo): 1 (5.0) n (%)
- Photophobia, all severities (last column, no head) ([2]; in vivo): 1 (5.0) n (%)
- SAEs attributed to corticorelin acetate ([2]; in vivo): none of which were attributed to corticorelin acetate
- Safety and tolerability of long-term treatment ([2]; in vivo): safe and well-tolerated
- Patients with normal or low serial serum cortisol levels ([3]; 15 of the 16 patients): 94%
- AM serum cortisol, one patient ([3]; after 8 weeks on dexamethasone at 7.0-8.0 mg/d, low): 0.4 µg/dL
- AM serum cortisol, one patient ([3]; after 16 weeks off dexamethasone, normalized): 25 µg/dL
- AM serum cortisol, one patient ([3]; after discontinuation of dexamethasone for 4 weeks, moderately elevated): 39 µg/dL
- Induction of hypercortisolism ([3]; dosing up to 48 weeks): did not induce hypercortisolism
- Patients with improvement or resolution of steroid-related conditions ([4]; 8 of the 18 patients with such conditions at baseline, 17 conditions): 45%
- Mean NCD ([4]; 8 patients with improvement or resolution of steroid-related conditions): -9.8 mg/day
- Median NCD ([4]; 8 patients with improvement or resolution of steroid-related conditions, range 0 to −36 mg/d): -6.5 mg/day
- Median time to initial improvement of steroid-related conditions ([4]; range 1 to 36 weeks): 12 weeks
- Improvement observed in Cushingoid appearance ([4]; steroid-related conditions): 5 AEs
- Improvement observed in insomnia ([4]; steroid-related conditions): 2 AEs
- Improvement observed in myopathy ([4]; steroid-related conditions): 4 AEs
- Improvement observed in weight gain, bloating, pedal edema, polyuria, skin striae, and Herpes zoster rash ([4]; steroid-related conditions): 1 AE each
- Subjects who reduced their dexamethasone dosage during the study [5]: 11 subjects
- Subjects who took no concomitant dexamethasone [5]: 2 subjects
- Subjects with improvement or resolution of steroid related conditions [6]: 45%
- Survival versus dexamethasone alone ([7]; administered chronically): significantly prolonged survival
- Effect on tumoral and peritumoral edema ([7]; intravenous infusion): reduce tumoral and peritumoral edema
- Effect on the anti-edematous effect of dexamethasone [8]: enhance substantially the anti-edematous effect of dexamethasone
- Effect on vascular leakage and tissue swelling [9]: inhibit vascular leakage of plasma constituents and associated tissue swelling
- Side-effects of intravenous administration ([10]; human, in vivo, iv): some side-effects including headache, hypotension, facial flushing, diarrhea, shortness of breath, nausea and lethargy
- Tolerability in humans ([10]; human, in vivo, iv): well-tolerated
- Neurological symptoms or physical findings ([10]; intravenous bolus and continuous infusions): showed improvement in neurological symptoms or physical findings
